In PubChem BioAssay AID588632 (Broad Institute, 2011):
Records with an inconclusive call do not appear. The source made the active and inactive calls.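 How the source made its calls: active means compounds lowering signal with fitted half-maximal concentration within ten times the top tested dose in every test run; inconclusive means test runs disagree, or a run had a weak flat or poor fit; inactive means every test run inactive.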

Molecular target: Serine/threonine-protein kinase 33 (Homo sapiens) (UniProt Q9BYT3)
Assay: STK33 kinase inhibitors, potency, dose response, biochemical, ADP-Glo luminescence, dry powder (AID 588632)
Details: purified STK33, MBP phosphorylation; for activity change, negative = inhibition: at 10 µM (top of the series)

Chain of Serine/threonine-protein kinase 33 (Homo sapiens) (Q9BYT3 whole entry, looked up): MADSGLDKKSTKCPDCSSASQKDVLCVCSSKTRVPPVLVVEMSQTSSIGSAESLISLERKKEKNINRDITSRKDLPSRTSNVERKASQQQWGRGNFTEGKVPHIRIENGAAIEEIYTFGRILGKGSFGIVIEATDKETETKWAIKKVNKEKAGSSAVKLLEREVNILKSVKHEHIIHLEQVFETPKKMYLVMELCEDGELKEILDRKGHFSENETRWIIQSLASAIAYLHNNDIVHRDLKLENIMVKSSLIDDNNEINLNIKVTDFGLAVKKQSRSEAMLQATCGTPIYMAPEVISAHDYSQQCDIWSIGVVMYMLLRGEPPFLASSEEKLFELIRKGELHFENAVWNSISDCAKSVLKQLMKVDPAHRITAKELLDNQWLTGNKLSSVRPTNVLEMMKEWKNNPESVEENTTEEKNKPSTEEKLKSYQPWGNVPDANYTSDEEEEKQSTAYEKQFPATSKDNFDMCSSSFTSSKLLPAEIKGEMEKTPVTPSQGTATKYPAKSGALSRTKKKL

Row | SMILES | activity change, negative = inhibition | AC50 [nM]
1 | CCC(CO)Oc1cc(NC(=O)c2ccc([N+](=O)[O-])cc2)c2ncn(C(C)C)c2c1 (stereo not drawn) | inactive | –
2 | Oc1ccc(Nc2nc(-c3ccccc3O)nc3ccccc23)cc1 | – | 811
3 | COc1cc(N2CCC(N3CCN(C)CC3)CC2)ccc1Nc1ncc2c(n1)N1CCC[C@H]1CC(=O)N2C | – | 1880
4 | COc1cc(N2CCC(N3CCN(C)CC3)CC2)ccc1Nc1ncc2c(n1)N(C1CCCC1)C(C)CC(=O)N2C (stereo not drawn) | – | 2200
5 | CCC(CO)Oc1cc(NC(=O)c2ccccc2C)c2ncn(C(C)C)c2c1 (stereo not drawn) | inactive | –
6 | Nc1nc(-c2cc(O)ccc2[N+](=O)[O-])cc(-c2ccccc2)c1[N+](=O)[O-] | – | 151
7 | O=C(Nc1ccccc1-c1ccccc1)c1ccc(Br)o1 | – | 1580
8 | COc1cc(C(=O)N2CCC(N3CCN(C)CC3)CC2)ccc1Nc1ncc2c(n1)N(C)c1ccccc1C(=O)N2C | – | 6450
9 | COC(=O)c1ccc(COc2ccccc2/C=C/C(=O)c2ccc(OCC(=O)O)cc2)cc1 | – | 400
10 | CCC(CO)Oc1cc(NC(=O)c2ccccc2)c2ncn(C(C)C)c2c1 (stereo not drawn) | inactive | –
11 | COc1cc(N2CCN(C)CC2)ccc1Nc1ncc2c(n1)N(C1CCCC1)C(C)CC(=O)N2C (stereo not drawn) | – | 910
12 | O=C(Nc1ccccc1-c1nc2ccccc2[nH]c1=O)c1cccs1 | – | 331
13 | CCC(CO)Oc1cc(NC(=O)c2ccc(F)cc2)c2ncn(C(C)C)c2c1 (stereo not drawn) | inactive | –
14 | CCCn1c(NC(=O)c2cccc(S(=O)(=O)N3CCCC3)c2)nc2ccccc21 | – | 122
15 | CN1CCN(c2ccc(Nc3ncc4c(n3)N(C)c3ccccc3C(=O)N4C)cc2)CC1 | – | 1130
16 | CC(Oc1ccc2c(c1)c1ccnc3c4ccccc4c(=O)n2c13)C(=O)NCCN1CCOCC1 (stereo not drawn) | – | 168
17 | COc1cc(C(=O)NC2CCN(C)CC2)ccc1Nc1ncc2c(n1)N(C1CCC(O)CC1)CCC(=O)N2C (stereo not drawn) | – | 1180
18 | CC(C)n1cnc2c(NCc3ccccc3)cc(OCCCN3CCOCC3)cc21 | inactive | –
19 | CC(C)n1cnc2c(Nc3cccc(Cl)c3)nc(NCCO)nc21 | – | 632
20 | CCC(CO)Oc1cc(NC(=O)c2cccc([N+](=O)[O-])c2)c2ncn(C(C)C)c2c1 (stereo not drawn) | inactive | –
21 | COCCCOc1cc(NCc2ccccc2)c2ncn(C(C)C)c2c1 | inactive | –
22 | CCC(CO)Oc1cc(NCc2ccccc2)c2ncn(C3CCCC3)c2c1 (stereo not drawn) | inactive | –
23 | CCC(CO)Oc1cc(NCc2ccccc2)c2ncn(C(C)C)c2c1 (stereo not drawn) | inactive | –

The remaining lines, values ahead:

Row | activity change, negative = inhibition | AC50 [nM] | SMILES
24 | inactive | – | CCC(CO)Oc1cc(NC(=O)c2cccc(N)c2)c2ncn(C(C)C)c2c1 (stereo not drawn)
25 | inactive | – | CCC(CO)Oc1cc(NC(=O)c2cccc(C)c2)c2ncn(C(C)C)c2c1 (stereo not drawn)
26 | – | 1250 | CCOc1ccccc1C(=O)Nc1cc(Cl)ccc1O
27 | inactive | – | CCC(CO)Oc1cc(NC(=O)c2cccc(OC)c2)c2ncn(C(C)C)c2c1 (stereo not drawn)
28 | inactive | – | CCC(CO)Oc1cc(NC(=O)c2ccccc2N)c2ncn(C(C)C)c2c1 (stereo not drawn)
29 | – | 522 | O=C1NC(=NCc2ccccc2)S/C1=C/c1ccc(O)cc1
30 | inactive | – | CCC(CO)Oc1cc(NC(=O)c2ccccc2OC)c2ncn(C(C)C)c2c1 (stereo not drawn)
31 | inactive | – | CCC(CO)Oc1cc(NC(=O)c2ccc(OC)cc2)c2ncn(C(C)C)c2c1 (stereo not drawn)
32 | – | 574 | COc1cc(/C=C2\SC(N)=NC2=O)ccc1O
33 | – | 1600 | COc1cc(N2CCN(C)CC2)ccc1Nc1ncc2c(n1)N(C)c1ccccc1C(=O)N2C
34 | – | 1560 | COc1cc(N2CCN(C)CC2)ccc1Nc1ncc2c(n1)N(C)c1sccc1C(=O)N2C
35 | inactive | – | CCC(CO)Oc1cc(NC(=O)c2ccc(Cl)cc2)c2ncn(C(C)C)c2c1 (stereo not drawn)
36 | – | 314 | COc1cc(/C=C2\SC(=Nc3ccccc3OC)NC2=O)ccc1O
37 | – | 939 | O=C1NCCCc2c1oc1ccc(O)cc21
38 | inactive | – | CCC(CO)Oc1cc(NC(=O)c2ccc(C)cc2)c2ncn(C(C)C)c2c1 (stereo not drawn)
39 | – | 695 | COc1cc(/C=N/n2c(-c3ccccc3)n[nH]c2=S)ccc1O
40 | inactive | – | CCC(CO)Oc1cc(NC(=O)c2ccc(N)cc2)c2ncn(C(C)C)c2c1 (stereo not drawn)
41 | – | 795 | Cc1ncc(/C=C2\C(=O)Nc3ccccc32)[nH]1
42 | – | 1130 | CC(=O)N(C)c1ccc(N=Cc2c(O)ccc3ccccc23)cc1
43 | – | 409 | COc1cc(N2CCN(C)CC2)ccc1Nc1ncc2c(n1)N1CCC[C@H]1CC(=O)N2C
44 | – | 509 | COc1cc(N2CCC(O)CC2)ccc1Nc1ncc2c(n1)N1CCc3cccc(c31)C(=O)N2C
45 | inactive | – | COc1cc(NCc2ccccc2)c2ncn(C(C)C)c2c1
46 | inactive | – | CCC(CO)Oc1cc(NC(=O)c2cccc(Cl)c2)c2ncn(C(C)C)c2c1 (stereo not drawn)
47 | inactive | – | CCC(CO)Oc1cc(NC(=O)c2cccc(F)c2)c2ncn(C(C)C)c2c1 (stereo not drawn)
48 | inactive | – | CCC(CO)Oc1cc(NC(=O)c2ccccc2Cl)c2ncn(C(C)C)c2c1 (stereo not drawn)
